Experimental data as given in the kinase profiling compilation of Christmann-Franck et al. (2016).

Each compound was assayed against SRPK2 (human) (UniProt P78362) (assay: radiometric filter-binding kinase assay, Kinase HotSpot). Settings: compound 0.5 µM; ATP 10 µM.

Compound | residual activity
CC(C)[C@H](CO)Nc1nc(Nc2cccc(Cl)c2)c2ncn(C(C)C)c2n1 | 53.6%
COc1cc2ncnc(Nc3ccc(F)c(Cl)c3)c2cc1OCCCN1CCOCC1 | 99.5%

These compounds were tested against ACVRL1 (human) (UniProt P37023) in the same assay as above. Settings: compound 0.5 µM; ATP 10 µM.

Compound | residual activity
Nc1nc(Nc2ccc(S(N)(=O)=O)cc2)nn1C(=S)Nc1c(F)cccc1F | 15.1%
Oc1ccc(-c2nc(-c3ccc(F)cc3)c(-c3ccncc3)[nH]2)cc1 | 95.4%
CC(C)[C@H](CO)Nc1nc(Nc2cccc(Cl)c2)c2ncn(C(C)C)c2n1 | 96.7%
COc1cc2ncnc(Nc3ccc(F)c(Cl)c3)c2cc1OCCCN1CCOCC1 | 96.9%

Each compound was assayed against HCK (human) (UniProt P08631) in the same assay as above. Settings: compound 0.5 µM; ATP 10 µM.
Chain of HCK (human) (P08631 whole entry, looked up): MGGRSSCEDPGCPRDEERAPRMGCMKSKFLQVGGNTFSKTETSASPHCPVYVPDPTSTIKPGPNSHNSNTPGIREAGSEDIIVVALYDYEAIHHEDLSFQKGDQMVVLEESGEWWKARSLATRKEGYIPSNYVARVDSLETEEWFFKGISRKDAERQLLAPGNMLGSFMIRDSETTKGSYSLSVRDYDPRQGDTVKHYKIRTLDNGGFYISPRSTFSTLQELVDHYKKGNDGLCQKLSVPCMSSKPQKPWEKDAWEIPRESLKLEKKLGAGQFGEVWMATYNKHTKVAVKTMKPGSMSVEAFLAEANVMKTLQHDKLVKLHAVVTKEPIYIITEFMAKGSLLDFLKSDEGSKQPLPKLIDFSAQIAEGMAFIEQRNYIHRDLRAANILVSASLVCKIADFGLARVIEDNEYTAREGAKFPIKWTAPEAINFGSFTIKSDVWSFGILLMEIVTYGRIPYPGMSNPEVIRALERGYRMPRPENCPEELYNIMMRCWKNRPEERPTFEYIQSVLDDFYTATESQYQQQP

Compound | residual activity
Nc1nc(Nc2ccc(S(N)(=O)=O)cc2)nn1C(=S)Nc1c(F)cccc1F | 37.9%
Oc1ccc(-c2nc(-c3ccc(F)cc3)c(-c3ccncc3)[nH]2)cc1 | 97.6%
CC(C)[C@H](CO)Nc1nc(Nc2cccc(Cl)c2)c2ncn(C(C)C)c2n1 | 55.6%
COc1cc2ncnc(Nc3ccc(F)c(Cl)c3)c2cc1OCCCN1CCOCC1 | 73.3%

These compounds were tested against LTK (human) (UniProt P29376) in the same assay as above. Settings: compound 0.5 µM; ATP 10 µM.
Chain of LTK (human) (P29376 whole entry, looked up): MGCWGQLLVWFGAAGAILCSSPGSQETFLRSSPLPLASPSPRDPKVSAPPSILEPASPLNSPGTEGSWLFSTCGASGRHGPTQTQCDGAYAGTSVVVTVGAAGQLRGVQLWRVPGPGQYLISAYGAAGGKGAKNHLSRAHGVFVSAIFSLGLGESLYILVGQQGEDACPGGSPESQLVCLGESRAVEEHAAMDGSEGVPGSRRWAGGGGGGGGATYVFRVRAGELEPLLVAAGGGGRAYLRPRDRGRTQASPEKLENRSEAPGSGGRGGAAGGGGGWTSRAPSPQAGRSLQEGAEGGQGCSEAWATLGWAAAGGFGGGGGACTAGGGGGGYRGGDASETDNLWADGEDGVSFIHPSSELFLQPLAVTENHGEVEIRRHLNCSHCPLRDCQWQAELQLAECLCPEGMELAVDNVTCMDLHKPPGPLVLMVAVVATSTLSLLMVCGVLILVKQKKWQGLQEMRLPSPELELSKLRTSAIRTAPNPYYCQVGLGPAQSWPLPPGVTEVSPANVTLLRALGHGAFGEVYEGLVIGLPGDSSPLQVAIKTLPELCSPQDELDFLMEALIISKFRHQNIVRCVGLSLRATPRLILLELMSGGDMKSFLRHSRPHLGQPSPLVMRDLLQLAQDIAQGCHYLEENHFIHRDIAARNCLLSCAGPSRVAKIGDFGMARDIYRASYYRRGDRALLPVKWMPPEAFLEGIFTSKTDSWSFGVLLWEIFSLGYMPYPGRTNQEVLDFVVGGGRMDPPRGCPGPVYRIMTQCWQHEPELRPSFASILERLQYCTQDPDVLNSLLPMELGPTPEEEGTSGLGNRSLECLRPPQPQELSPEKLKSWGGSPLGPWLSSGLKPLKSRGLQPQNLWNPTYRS

Compound | residual activity
Nc1nc(Nc2ccc(S(N)(=O)=O)cc2)nn1C(=S)Nc1c(F)cccc1F | 27.6%
Oc1ccc(-c2nc(-c3ccc(F)cc3)c(-c3ccncc3)[nH]2)cc1 | 97.1%
CC(C)[C@H](CO)Nc1nc(Nc2cccc(Cl)c2)c2ncn(C(C)C)c2n1 | 100%
COc1cc2ncnc(Nc3ccc(F)c(Cl)c3)c2cc1OCCCN1CCOCC1 | 90.4%

What follows are compounds tested against TAOK1 (human) (UniProt Q7L7X3) in the same assay as above. Settings: compound 0.5 µM; ATP 10 µM.
Chain of TAOK1 (human) (Q7L7X3 whole entry, looked up): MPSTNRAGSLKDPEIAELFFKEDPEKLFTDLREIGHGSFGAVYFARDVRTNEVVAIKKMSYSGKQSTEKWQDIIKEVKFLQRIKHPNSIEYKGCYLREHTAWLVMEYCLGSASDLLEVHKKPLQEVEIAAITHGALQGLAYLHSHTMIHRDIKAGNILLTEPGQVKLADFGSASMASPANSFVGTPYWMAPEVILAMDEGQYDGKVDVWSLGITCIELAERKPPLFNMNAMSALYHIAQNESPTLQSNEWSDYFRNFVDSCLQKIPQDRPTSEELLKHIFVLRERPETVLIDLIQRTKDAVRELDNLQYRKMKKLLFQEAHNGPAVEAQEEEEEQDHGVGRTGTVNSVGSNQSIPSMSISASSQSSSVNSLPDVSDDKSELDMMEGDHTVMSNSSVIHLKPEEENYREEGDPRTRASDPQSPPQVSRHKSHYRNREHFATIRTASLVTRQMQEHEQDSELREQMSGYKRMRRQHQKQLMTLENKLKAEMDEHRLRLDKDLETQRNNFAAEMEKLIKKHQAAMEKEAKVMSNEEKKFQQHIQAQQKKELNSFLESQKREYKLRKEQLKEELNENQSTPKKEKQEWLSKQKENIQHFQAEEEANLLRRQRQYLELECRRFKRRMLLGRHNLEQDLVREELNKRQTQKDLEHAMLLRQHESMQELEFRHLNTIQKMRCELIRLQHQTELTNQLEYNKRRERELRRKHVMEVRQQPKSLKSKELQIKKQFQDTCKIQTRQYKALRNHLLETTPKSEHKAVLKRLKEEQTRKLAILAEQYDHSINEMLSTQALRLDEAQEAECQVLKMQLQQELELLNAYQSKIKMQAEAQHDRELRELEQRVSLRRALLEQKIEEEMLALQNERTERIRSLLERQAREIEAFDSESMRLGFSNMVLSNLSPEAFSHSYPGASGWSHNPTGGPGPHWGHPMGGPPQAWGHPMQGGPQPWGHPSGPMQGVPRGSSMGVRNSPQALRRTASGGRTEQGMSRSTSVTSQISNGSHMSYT

Compound | residual activity
Nc1nc(Nc2ccc(S(N)(=O)=O)cc2)nn1C(=S)Nc1c(F)cccc1F | 11.3%
Oc1ccc(-c2nc(-c3ccc(F)cc3)c(-c3ccncc3)[nH]2)cc1 | 98.5%
CC(C)[C@H](CO)Nc1nc(Nc2cccc(Cl)c2)c2ncn(C(C)C)c2n1 | 95.4%
COc1cc2ncnc(Nc3ccc(F)c(Cl)c3)c2cc1OCCCN1CCOCC1 | 103%

Each compound was assayed against VRK1 (human) (UniProt Q99986) in the same assay as above. Settings: compound 0.5 µM; ATP 10 µM.

Compound | residual activity
Nc1nc(Nc2ccc(S(N)(=O)=O)cc2)nn1C(=S)Nc1c(F)cccc1F | 94.6%
Oc1ccc(-c2nc(-c3ccc(F)cc3)c(-c3ccncc3)[nH]2)cc1 | 98.7%
CC(C)[C@H](CO)Nc1nc(Nc2cccc(Cl)c2)c2ncn(C(C)C)c2n1 | 99.5%
COc1cc2ncnc(Nc3ccc(F)c(Cl)c3)c2cc1OCCCN1CCOCC1 | 99.3%

Each compound was assayed against CAMKK1 (human) (UniProt Q8N5S9) in the same assay as above. Settings: compound 0.5 µM; ATP 10 µM.

Compound | residual activity
Nc1nc(Nc2ccc(S(N)(=O)=O)cc2)nn1C(=S)Nc1c(F)cccc1F | 36%
Oc1ccc(-c2nc(-c3ccc(F)cc3)c(-c3ccncc3)[nH]2)cc1 | 123%
CC(C)[C@H](CO)Nc1nc(Nc2cccc(Cl)c2)c2ncn(C(C)C)c2n1 | 101%
COc1cc2ncnc(Nc3ccc(F)c(Cl)c3)c2cc1OCCCN1CCOCC1 | 93.8%

The compounds below were run against PIM2 (human) (UniProt Q9P1W9) in the same assay as above. Settings: compound 0.5 µM; ATP 10 µM.
Chain of PIM2 (human) (Q9P1W9 whole entry, looked up): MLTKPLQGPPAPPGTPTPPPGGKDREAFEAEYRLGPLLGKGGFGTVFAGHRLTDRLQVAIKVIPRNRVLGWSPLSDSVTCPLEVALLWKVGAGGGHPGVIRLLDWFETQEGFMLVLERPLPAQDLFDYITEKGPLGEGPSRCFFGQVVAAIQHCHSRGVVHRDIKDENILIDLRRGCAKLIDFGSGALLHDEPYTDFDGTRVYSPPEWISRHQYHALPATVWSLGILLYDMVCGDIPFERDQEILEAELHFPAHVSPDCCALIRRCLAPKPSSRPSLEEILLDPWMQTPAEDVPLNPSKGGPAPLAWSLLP

Compound | residual activity
Nc1nc(Nc2ccc(S(N)(=O)=O)cc2)nn1C(=S)Nc1c(F)cccc1F | 106%
Oc1ccc(-c2nc(-c3ccc(F)cc3)c(-c3ccncc3)[nH]2)cc1 | 106%
CC(C)[C@H](CO)Nc1nc(Nc2cccc(Cl)c2)c2ncn(C(C)C)c2n1 | 105%
COc1cc2ncnc(Nc3ccc(F)c(Cl)c3)c2cc1OCCCN1CCOCC1 | 96.2%

These compounds were tested against CDK6 CCND1 (human) (UniProt Q00534+P24385) in the same assay as above. Settings: compound 0.5 µM; ATP 10 µM.
Chain of CDK6 CCND1 (human) (P24385 whole entry, looked up): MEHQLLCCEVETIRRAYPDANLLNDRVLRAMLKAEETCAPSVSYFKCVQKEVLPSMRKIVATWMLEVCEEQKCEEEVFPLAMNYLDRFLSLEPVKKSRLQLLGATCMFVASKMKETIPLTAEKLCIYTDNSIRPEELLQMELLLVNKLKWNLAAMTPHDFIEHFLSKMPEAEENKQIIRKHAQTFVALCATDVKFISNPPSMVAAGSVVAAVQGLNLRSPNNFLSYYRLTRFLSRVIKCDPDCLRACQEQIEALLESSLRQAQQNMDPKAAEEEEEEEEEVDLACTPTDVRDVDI
Chain of CDK6 CCND1 (human) (Q00534 whole entry, looked up): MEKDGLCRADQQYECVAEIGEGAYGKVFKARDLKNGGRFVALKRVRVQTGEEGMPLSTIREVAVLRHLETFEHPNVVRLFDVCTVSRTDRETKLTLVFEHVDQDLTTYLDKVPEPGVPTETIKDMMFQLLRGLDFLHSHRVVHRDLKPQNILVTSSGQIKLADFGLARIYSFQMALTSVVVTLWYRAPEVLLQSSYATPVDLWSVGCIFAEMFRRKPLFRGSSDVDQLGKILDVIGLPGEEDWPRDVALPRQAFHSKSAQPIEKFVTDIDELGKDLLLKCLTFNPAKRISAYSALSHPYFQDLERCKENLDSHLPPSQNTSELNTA

Compound | residual activity
Nc1nc(Nc2ccc(S(N)(=O)=O)cc2)nn1C(=S)Nc1c(F)cccc1F | 2.89%
Oc1ccc(-c2nc(-c3ccc(F)cc3)c(-c3ccncc3)[nH]2)cc1 | 97.6%
CC(C)[C@H](CO)Nc1nc(Nc2cccc(Cl)c2)c2ncn(C(C)C)c2n1 | 67.5%
COc1cc2ncnc(Nc3ccc(F)c(Cl)c3)c2cc1OCCCN1CCOCC1 | 98.7%

Each compound was assayed against IRAK1 (human) (UniProt P51617) in the same assay as above. Settings: compound 0.5 µM; ATP 10 µM.
Chain of IRAK1 (human) (P51617 whole entry, looked up): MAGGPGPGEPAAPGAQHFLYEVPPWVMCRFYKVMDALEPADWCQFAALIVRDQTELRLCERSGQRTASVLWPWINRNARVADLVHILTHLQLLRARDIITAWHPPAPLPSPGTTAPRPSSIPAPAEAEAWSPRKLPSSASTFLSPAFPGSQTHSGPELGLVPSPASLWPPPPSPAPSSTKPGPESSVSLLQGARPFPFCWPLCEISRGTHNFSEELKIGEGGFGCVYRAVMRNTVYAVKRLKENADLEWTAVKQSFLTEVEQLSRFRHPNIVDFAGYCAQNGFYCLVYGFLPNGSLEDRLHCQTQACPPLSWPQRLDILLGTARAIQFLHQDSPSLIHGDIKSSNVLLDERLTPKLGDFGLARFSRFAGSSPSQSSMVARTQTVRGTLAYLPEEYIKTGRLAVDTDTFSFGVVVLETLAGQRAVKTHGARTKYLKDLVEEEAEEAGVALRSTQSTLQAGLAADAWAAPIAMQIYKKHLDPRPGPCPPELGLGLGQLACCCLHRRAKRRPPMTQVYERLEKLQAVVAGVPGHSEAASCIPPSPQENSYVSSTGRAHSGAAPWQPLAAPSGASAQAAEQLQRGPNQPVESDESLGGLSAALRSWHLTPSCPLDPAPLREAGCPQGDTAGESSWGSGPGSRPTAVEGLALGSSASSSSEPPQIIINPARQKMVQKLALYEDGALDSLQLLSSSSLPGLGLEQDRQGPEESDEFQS

Compound | residual activity
Nc1nc(Nc2ccc(S(N)(=O)=O)cc2)nn1C(=S)Nc1c(F)cccc1F | 16.9%
Oc1ccc(-c2nc(-c3ccc(F)cc3)c(-c3ccncc3)[nH]2)cc1 | 123%
CC(C)[C@H](CO)Nc1nc(Nc2cccc(Cl)c2)c2ncn(C(C)C)c2n1 | 109%
COc1cc2ncnc(Nc3ccc(F)c(Cl)c3)c2cc1OCCCN1CCOCC1 | 57.6%

What follows are compounds tested against EPHA2 (human) (UniProt P29317) in the same assay as above. Settings: compound 0.5 µM; ATP 10 µM.
Chain of EPHA2 (human) (P29317 whole entry, looked up): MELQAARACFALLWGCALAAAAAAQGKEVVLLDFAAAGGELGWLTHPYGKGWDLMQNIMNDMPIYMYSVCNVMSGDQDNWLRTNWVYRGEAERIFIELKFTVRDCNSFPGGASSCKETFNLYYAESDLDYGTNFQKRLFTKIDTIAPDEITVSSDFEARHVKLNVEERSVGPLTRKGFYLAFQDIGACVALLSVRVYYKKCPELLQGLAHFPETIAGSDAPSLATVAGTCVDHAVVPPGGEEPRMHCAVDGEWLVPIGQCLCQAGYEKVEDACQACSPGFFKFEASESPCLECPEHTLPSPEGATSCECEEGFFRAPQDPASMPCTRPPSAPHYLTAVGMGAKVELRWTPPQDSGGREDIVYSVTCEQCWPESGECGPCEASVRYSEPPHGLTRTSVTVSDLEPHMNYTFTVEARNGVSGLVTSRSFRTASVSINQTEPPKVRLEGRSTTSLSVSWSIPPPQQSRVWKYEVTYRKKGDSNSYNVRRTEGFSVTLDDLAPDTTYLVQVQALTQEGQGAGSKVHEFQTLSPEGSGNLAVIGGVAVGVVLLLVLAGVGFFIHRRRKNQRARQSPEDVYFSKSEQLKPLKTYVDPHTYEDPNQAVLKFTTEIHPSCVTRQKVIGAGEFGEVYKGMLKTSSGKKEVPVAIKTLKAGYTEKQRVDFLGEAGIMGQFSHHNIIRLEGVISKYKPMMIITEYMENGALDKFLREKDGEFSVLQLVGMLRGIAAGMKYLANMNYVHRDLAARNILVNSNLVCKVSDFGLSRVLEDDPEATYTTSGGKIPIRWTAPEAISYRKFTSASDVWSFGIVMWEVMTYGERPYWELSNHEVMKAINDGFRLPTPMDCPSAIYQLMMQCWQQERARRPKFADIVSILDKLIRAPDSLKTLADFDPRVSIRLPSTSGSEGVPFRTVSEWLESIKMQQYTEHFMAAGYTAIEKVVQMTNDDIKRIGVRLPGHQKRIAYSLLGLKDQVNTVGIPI

Compound | residual activity
Nc1nc(Nc2ccc(S(N)(=O)=O)cc2)nn1C(=S)Nc1c(F)cccc1F | 29.9%
Oc1ccc(-c2nc(-c3ccc(F)cc3)c(-c3ccncc3)[nH]2)cc1 | 91.3%
CC(C)[C@H](CO)Nc1nc(Nc2cccc(Cl)c2)c2ncn(C(C)C)c2n1 | 89.5%
COc1cc2ncnc(Nc3ccc(F)c(Cl)c3)c2cc1OCCCN1CCOCC1 | 85.7%
